Legend:
[1] = Calcification after subcutaneous implantation in rats (Examples 2 and 3), bovine pericardium; type: in vivo, Sprague-Dawley rats; conditions: retrieved after 60 days of implantation, about 16 hours treatment
Protocol: In a class 100 laminar flow bench, pieces of glutaraldehyde-fixed bovine pericardium tissue (Mitroflow Inc.; Richmond, British Columbia, Canada) porcine cusp tissue (Labcor; Belo Horizonte, Brazil) and porcine wall tissue (Labcor Inc.) were transferred into sterile tubes containing 1,2-octanediol solutions (5% 1,2-octanediol (Aldrich Chemical), 40% ethanol and 55% 10 mM HEPES buffer). The tubes were transferred to a 37° C. incubator and maintained at 37° C. with gentle agitation for about 16 hours. After the treatment, the samples were transferred to solutions comprising 22% ethanol in 10 mM HEPES and stored for 14 days at 4° C. The final tissue to volume ratio for all treatments was approximately 27 ml/g. For N-methyl pyrolidinone (NMP) treatments, pieces of glutaraldehyde-fixed bovine pericardium tissue (Mitroflow Inc.), porcine cusp tissue (Labcor Inc.) and porcine wall tissue (Labcor Inc.) were transferred into sterile tubes containing NMP. The tubes were incubated at room temperature for about 16 hours with occasional manual agitation. […] Seven rats per treatment group were analyzed. […] After retrieval, the samples were analyzed for their calcium and phosphorus contents using a standard ICP methodology. […] Seven rats per treatment group were analyzed. […] After retrieval, the samples were analyzed for their calcium and phosphorus contents by ICP.

[2] = Calcification after subcutaneous implantation in rats (Example 2), porcine cusp; type: in vivo, Sprague-Dawley rats; conditions: retrieved after 60 days of implantation, about 16 hours treatment
Protocol: (§1) In a class 100 laminar flow bench, pieces of glutaraldehyde-fixed bovine pericardium tissue (Mitroflow Inc.; Richmond, British Columbia, Canada) porcine cusp tissue (Labcor; Belo Horizonte, Brazil) and porcine wall tissue (Labcor Inc.) were transferred into sterile tubes containing 1,2-octanediol solutions (5% 1,2-octanediol (Aldrich Chemical), 40% ethanol and 55% 10 mM HEPES buffer). The tubes were transferred to a 37° C. incubator and maintained at 37° C. with gentle agitation for about 16 hours. After the treatment, the samples were transferred to solutions comprising 22% ethanol in 10 mM HEPES and stored for 14 days at 4° C. The final tissue to volume ratio for all treatments was approximately 27 ml/g. For N-methyl pyrolidinone (NMP) treatments, pieces of glutaraldehyde-fixed bovine pericardium tissue (Mitroflow Inc.), porcine cusp tissue (Labcor Inc.) and porcine wall tissue (Labcor Inc.) were transferred into sterile tubes containing NMP. The tubes were incubated at room temperature for about 16 hours with occasional manual agitation. After the treatment, the tissue samples were transferred to 22% HEPES-buffered ethanol solutions and stored for 14 days at 4° C. […] Seven rats per treatment group were analyzed. […] After retrieval, the samples were analyzed for their calcium and phosphorus contents using a standard ICP methodology.

[3] = Calcification after subcutaneous implantation in rats (Example 2), porcine wall; type: in vivo, Sprague-Dawley rats; conditions: retrieved after 60 days of implantation, about 16 hours treatment
Protocol: as §1

[4] = system: Amphotropic Murine Leukemia Virus (A-MuLV); test: Viral inactivation of spiked porcine valve and pericardium, A-MuLV; type: cell-based; conditions: 0.2% glutaraldehyde at 47 days; average for porcine valve and pericardium material
[5] = system: Influenza A Virus (Inf A); test: Viral inactivation of spiked porcine valve and pericardium, Inf A; type: cell-based; conditions: 0.2% glutaraldehyde at 47 days; average for porcine valve and pericardium material
[6] = system: Porcine Parvovirus (PPV); test: Viral inactivation of spiked porcine valve and pericardium, PPV; type: cell-based; conditions: 0.2% glutaraldehyde at 47 days; average for porcine valve and pericardium material
[7] = system: Pseudorabies Virus (PrV); type: cell-based; conditions: 0.2% glutaraldehyde at 47 days; average for porcine valve and pericardium material
[8] = system: Reovirus Type 3 (REO-3); test: Viral inactivation of spiked porcine valve and pericardium, REO-3; type: cell-based; conditions: 0.2% glutaraldehyde at 47 days; average for porcine valve and pericardium material
[9] = system: five viruses (A-MuLV, Inf A, PPV, PrV, REO-3); test: Viral inactivation, panel of five viruses (remaining virus); type: cell-based; conditions: after 47 days of exposure

Row | Structure (SMILES) | Calcuim (μg/mg tissue) [1] [μg/mg tissue] | Phosphorus (μg/mg tissue) [1] [μg/mg tissue] | Calcuim (μg/mg tissue) [2] [μg/mg tissue] | Phosphorus (μg/mg tissue) [2] [μg/mg tissue] | Calcuim (μg/mg tissue) [3] [μg/mg tissue] | Phosphorus (μg/mg tissue) [3] [μg/mg tissue] | Viral log reduction, A-MuLV [4] [log] | Viral log reduction, Inf A [5] [log] | Viral log reduction, PPV [6] [log] | Viral log reduction, PrV [7] [log] | Viral log reduction, REO-3 [8] [log] | viruses present on porcine valves or pericardium materials [9]
1 | CN1CCCC1=O [NMP, N-methyl pyrolidinone] | 8.0 | 3.4 | 14.7 | 7.9 | 111.9 | 55.2 |  |  |  |  |  | 
2 | O=CCCCC=O [Glutaraldehyde, glutaraldehyde] |  |  |  |  |  |  | 4.15 | 3.5 | 5.03 | 5.51 | 5.00 | No viruses were present

— patent US20060110370A1, “Treatments for reduction of cytotoxicity and viral contamination of implantable medical devices” (priority 2004, published 2006)
